Measured values from ChEMBL document CHEMBL1201862, “PubChem BioAssay data set” (2004).
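Assay format: 96-well plates, 48-hour exposure. The concentration for 50% growth inhibition is given as GI50.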 Calls of active or inactive are those of the source. No stated cut-off is given here; in the data, active = GI50 up to about 1.1 µM and inactive = higher.

Experiments:
Assay in all cases: NCI-60 cell line screen, 48 h
OVCAR-8 = tested on: OVCAR-8
NCI-H460 = tested on: NCI-H460
OVCAR-3 = tested on: OVCAR-3
SF-539 = tested on: SF-539
SN12C = tested on: SN12C
SK-MEL-28 = tested on: SK-MEL-28
PC-3 = tested on: PC-3
SNB-75 = tested on: SNB-75
SF-268 = tested on: SF-268
SK-MEL-2 = tested on: SK-MEL-2
T47D = tested on: T47D
SK-MEL-5 = tested on: SK-MEL-5
NCI-H522 = tested on: NCI-H522
HCT-15 = tested on: HCT-15
Hs-578T = tested on: Hs-578T
EKVX = tested on: EKVX
MDA-MB-231 = tested on: MDA-MB-231
HCC 2998 = tested on: HCC 2998
UACC-62 = tested on: UACC-62
UO-31 = tested on: UO-31

Structure (SMILES)	GI50 (OVCAR-8)	GI50 (NCI-H460)	GI50 (OVCAR-3)	GI50 (SF-539)	GI50 (SN12C)	GI50 (SK-MEL-28)	GI50 (PC-3)	GI50 (SNB-75)	GI50 (SF-268)	GI50 (SK-MEL-2)	GI50 (T47D)	GI50 (SK-MEL-5)	GI50 (NCI-H522)	GI50 (HCT-15)	GI50 (Hs-578T)	GI50 (EKVX)	GI50 (MDA-MB-231)	GI50 (HCC 2998)	GI50 (UACC-62)	GI50 (UO-31)
O=C(/C=C/c1ccccc1)CCc1c(O)c2ccccc2oc1=O	> 100 µM (inactive)	87.9 µM (inactive)	49.4 µM (inactive)	> 100 µM (inactive)	> 100 µM (inactive)	> 100 µM (inactive)	43.9 µM (inactive)	> 100 µM (inactive)	> 100 µM (inactive)	71.9 µM (inactive)	> 100 µM (inactive)	80.5 µM (inactive)	74.3 µM (inactive)	76.7 µM	> 100 µM (inactive)	83 µM (inactive)	44 µM (inactive)	> 100 µM (inactive)	71 µM (inactive)	63.2 µM (inactive)
COc1ccc2c(c1)OC(c1cccnc1)C(c1ccccc1)C2=O (stereo unspecified)	80.2 µM (inactive)	> 100 µM (inactive)	> 100 µM (inactive)	> 100 µM (inactive)	> 100 µM (inactive)	> 100 µM (inactive)	> 100 µM (inactive)	> 100 µM (inactive)	61 µM (inactive)	> 100 µM (inactive)	> 100 µM (inactive)	> 100 µM (inactive)	> 100 µM (inactive)	> 100 µM	54 µM (inactive)	> 100 µM (inactive)	> 100 µM (inactive)	> 100 µM (inactive)	> 100 µM (inactive)	> 100 µM (inactive)
COc1ccc(Cc2cc(OC)c(OC)c(OC)c2)cc1	0.504 µM (active)	0.286 µM (active)	0.151 µM (active)	0.224 µM (active)	0.671 µM (active)	0.479 µM (active)	0.234 µM (active)	0.192 µM (active)	1.27 µM (inactive)	0.218 µM (active)	30.8 µM (inactive)	0.167 µM (active)	0.19 µM (active)	0.114 µM	0.215 µM (active)	1.14 µM (inactive)	0.711 µM (active)	0.226 µM (active)	0.129 µM (active)	0.766 µM (active)
O=C(CN1CCN(Cc2ccccc2)CC1)N1CCCn2c1nc1ccccc1c2=O	> 100 µM (inactive)	> 100 µM (inactive)	> 100 µM (inactive)	> 100 µM (inactive)	> 100 µM (inactive)	–	> 100 µM (inactive)	> 100 µM (inactive)	> 100 µM (inactive)	> 100 µM (inactive)	> 100 µM (inactive)	> 100 µM (inactive)	> 100 µM (inactive)	> 100 µM	> 100 µM (inactive)	> 100 µM (inactive)	> 100 µM (inactive)	> 100 µM (inactive)	> 100 µM (inactive)	> 100 µM (inactive)
C/C=C(\C)[C@@H](O)C(=O)O[C@@H]1CC(C(C)(C)O)[C@](C)(CCC(=O)OC)[C@H]2[C@H](OC(=O)[C@H](O)[C@H](C)CC)C[C@]3(C)C(=CC[C@H]3[C@H]3CO[C@H](C=C(C)C)C3)[C@]12C (stereo partly specified)	17.7 µM (inactive)	18.5 µM (inactive)	20.1 µM (inactive)	20.5 µM (inactive)	–	21.6 µM (inactive)	16.7 µM (inactive)	15.4 µM (inactive)	18.5 µM (inactive)	17.6 µM (inactive)	25.7 µM (inactive)	17.4 µM (inactive)	14.9 µM (inactive)	19 µM	19.8 µM (inactive)	15.3 µM (inactive)	19.6 µM (inactive)	16.2 µM (inactive)	–	17.7 µM (inactive)
COC(=O)[C@]1(C)CCC[C@@]2(C)[C@@H]3C[C@@H]4[C@H]5C[C@@]3(CC[C@@H]21)C[C@@]45C	16.4 µM (inactive)	–	18.2 µM (inactive)	22.1 µM (inactive)	19.2 µM (inactive)	17.5 µM (inactive)	15.2 µM (inactive)	17.7 µM (inactive)	17.9 µM (inactive)	16.4 µM (inactive)	23.2 µM (inactive)	17.2 µM (inactive)	16.8 µM (inactive)	16.2 µM	20.5 µM (inactive)	15.6 µM (inactive)	15.6 µM (inactive)	17.3 µM (inactive)	14.8 µM (inactive)	16 µM (inactive)
NNC(=O)CNc1cccc(Br)c1	> 100 µM (inactive)	> 100 µM (inactive)	> 100 µM (inactive)	> 100 µM (inactive)	> 100 µM (inactive)	> 100 µM (inactive)	> 100 µM (inactive)	> 100 µM (inactive)	> 100 µM (inactive)	> 100 µM (inactive)	> 100 µM (inactive)	> 100 µM (inactive)	> 100 µM (inactive)	> 100 µM	> 100 µM (inactive)	> 100 µM (inactive)	> 100 µM (inactive)	> 100 µM (inactive)	> 100 µM (inactive)	> 100 µM (inactive)
